Test results from paper PMC4492732 (Pharmacology Research & Perspectives, 2015).

Experiments:
[1] = organic phase relative to aqueous phase; ref Leung and Baillie ([1986]); cited from earlier work
[2] = biological target: α7-nicotinic acetylcholine receptor; conditions: ref Moaddel et al. [2013]; cited from earlier work
[3] = rat, ref Leung and Baillie ([1986]), cited from earlier work; for increased spontaneous locomotor activity: postanesthetic recovery phase
[4] = Pharmacokinetic parameters for; assay type: in vivo, Wistar rat; conditions: metabolite after single i.v. 40 mg/kg (R,S)-Ket
[5] = Plasma concentrations of Ket and; assay type: in vivo, Wistar rat; conditions: after i.v. 20 mg/kg (R)-Ket, n = 3, ±SD
[6] = Brain tissue concentrations of Ket and; conditions: for Brain tissue concentration 10 min / Brain tissue concentration 20 min / Brain tissue concentration 60 min / ratio of brain tissue concentration: plasma concentration 10 min / ratio of brain tissue concentration: plasma concentration 20 min / ratio of brain tissue concentration: plasma concentration 60 min: after i.v. 20 mg/kg (R)-Ket; for Brain tissue concentration 10 min / Brain tissue concentration 20 min / Brain tissue concentration 60 min: n = 3, ±SD
[7] = after i.v. (R,S)-Ket; ref Cohen et al. [1973]; cited from earlier work
Incubation of = assay type: in vitro ADME, Wistar rat; conditions: 0.1, 1 and 10 μmol/L; 1 mg/mL S9, NADPH; up to 120 min; data not shown

| Structure (SMILES) | increased spontaneous locomotor activity [3] | duration of anesthesia [3] | Plasma concentration 10 min [5] [ng/mL] | Plasma concentration 20 min [5] [ng/mL] | Plasma concentration 60 min [5] [ng/mL] | Brain tissue concentration 10 min [6] | Brain tissue concentration 20 min [6] [ng/g tissue] | Brain tissue concentration 60 min [6] [ng/g tissue] | other results |
| --- | --- | --- | --- | --- | --- | --- | --- | --- | --- |
| N[C@@]1(c2ccccc2Cl)CCC[C@@H](O)C1=O [(2S,6S;2R,6R)-HNK, (2S,6S;2R,6R)-hydroxynorketamine] | no effect | no effect |  |  |  |  |  |  | relative hydrophobicity from partition coefficients [1]: significantly less lipophilic; IC50 [2]: < 100 nM; t1/2 [4]: 9.5 ± 5.4 h |
| NC1(c2ccccc2Cl)CCC=CC1=O (racemic) [(R,S)-DHNK, (R,S)-dehydronorketamine] |  |  |  |  |  |  |  |  | IC50 [2]: < 100 nM |
| N[C@@]1(c2ccccc2Cl)CCC[C@@H](O)C1=O [(2R,6R)-HNK, (2R,6R)-hydroxynorketamine] |  |  | 345 ± 115 | 316 ± 58 | 200 ± 24 | 274 ± 47 ng/g tissue | 191 ± 50 | 156 ± 34 |  |
| N[C@@]1(c2ccccc2Cl)CCC[C@H](O)C1=O [(2R,6S)-HNK] |  |  | 222 ± 29 | 96 ± 6 | 35 ± 6 | 141 ± 20 ng/g tissue | 78 ± 37 | 48 ± 28 | ratio of brain tissue concentration: plasma concentration 10 min [6]: (0.6); ratio of brain tissue concentration: plasma concentration 20 min [6]: (0.8); ratio of brain tissue concentration: plasma concentration 60 min [6]: (1.4); average ratio of brain tissue concentration to plasma concentration ([6]; after i.v. (S)-Ket or (R)-Ket, respectively, over the first 20 min post administration): ~1 |
| CN[C@@]1(c2ccccc2Cl)CCCCC1=O [(R)-Ket, (R)-ketamine, reference compound] |  |  | 3430 ± 400 | 1420 ± 103 | 498 ± 116 | 16,365 ± 1931 ng/g tissue | 8715 ± 4433 | 5224 ± 3391 | ratio of brain tissue concentration: plasma concentration 10 min [6]: (4.8); ratio of brain tissue concentration: plasma concentration 20 min [6]: (6.1); ratio of brain tissue concentration: plasma concentration 60 min [6]: (10.5) |
| CNC1(c2ccccc2Cl)CCCCC1=O (racemic) [(R,S)-Ket, ketamine, reference compound] | 25 min | 7 min |  |  |  |  |  |  | relative hydrophobicity from partition coefficients [1]: slightly more hydrophobic; time to peak brain tissue concentrations [7]: less than 1 min; Ket metabolites formed in incubates (Incubation of): did not contain any known Ket metabolites |
| NC1(c2ccccc2Cl)CCCCC1=O (racemic) [(R,S)-norKet, (R,S)-norketamine] | 7 min | 3 min |  |  |  |  |  |  |  |
